Source: ChEMBL document CHEMBL1156251, “Structure--activity relationships of polymyxin antibiotics” (J Med Chem, 2010)
≈ marks a conversion by molar mass, not a printed value. Where “and” joins values, the source holds several entries; their conditions need not be identical. Identical values can stand only once. Where a SMILES comes first, the peptide text is derived from it. Bridges are numbered along the chain shown (N, C = ends). [ ]: non-standard residue; d: D form. The star is where a group is joined. Nonanoyl = CCCCCCCCC(=O)*; Octanoyl = CCCCCCCC(=O)*; Dab = NCC[C@H](N)C(=O)O

Assays:
[1] = tested on: Klebsiella pneumoniae; test: Antimicrobial activity against Klebsiella pneumoniae; format: functional
[2] = molecular target: Lipopolysaccharide (LPS); test: Displacement of dansyl-PMB from LPS by isothermal titration calorimetry
[3] = tested on: Salmonella enterica; test: Antimicrobial activity against Salmonella enterica; format: functional
[4] = tested on: Pseudomonas aeruginosa; test: Antimicrobial activity against Pseudomonas aeruginosa; format: functional, organism-based
[5] = tested on: Escherichia coli; test: Antimicrobial activity against Escherichia coli; format: functional

MIC [1] | IC50 [2] | MIC [3] | MIC [4] | MIC [5] | SMILES
26 µg/mL (≈ 16.7 µM) | – | – | – | – | CCC(C)CCCCC(=O)N[C@@H](CC/N=C/c1ccccc1)C(=O)N[C@H](C(=O)N[C@@H](CCN)C(=O)N[C@H]1CCNC(=O)[C@H]([C@@H](C)O)NC(=O)[C@H](CC/N=C/c2ccccc2)NC(=O)[C@H](CC/N=C/c2ccccc2)NC(=O)[C@H](CC(C)C)NC(=O)[C@@H](Cc2ccccc2)NC(=O)[C@H](CC/N=C/c2ccccc2)NC1=O)[C@@H](C)O (some centres undefined)
26 µg/mL (≈ 16.1 µM) | – | – | – | – | CCC(C)CCCCC(=O)N[C@@H](CC/N=C/c1ccc(O)cc1)C(=O)N[C@H](C(=O)N[C@@H](CCN)C(=O)N[C@H]1CCNC(=O)[C@H]([C@@H](C)O)NC(=O)[C@H](CC/N=C/c2ccc(O)cc2)NC(=O)[C@H](CC/N=C/c2ccc(O)cc2)NC(=O)[C@H](CC(C)C)NC(=O)[C@@H](Cc2ccccc2)NC(=O)[C@H](CC/N=C/c2ccc(O)cc2)NC1=O)[C@@H](C)O (some centres undefined)
– | >= 32 nmol/ml | 64 µM (≈ 70 µg/mL) | 1 µM (≈ 1.09 µg/mL) | 64 µM (≈ 70 µg/mL) | CC(C)C[C@@H]1NC(=O)[C@@H](Cc2ccccc2)NC(=O)[C@H](CCN)NC(=O)[C@@H](NC(=O)[C@H](CCN)NC(=O)[C@@H](NC(=O)[C@H](CO)NC(=O)O)[C@@H](C)O)CCNC(=O)[C@H]([C@@H](C)O)NC(=O)[C@H](CCN)NC(=O)[C@H](CCN)NC1=O [DESFA-[SER1]POLYMYXIN B]
– | 13 µM | 16 µM (≈ 17.7 µg/mL) | 4 µM (≈ 4.42 µg/mL) | 8 µM and 30 µg/mL | CC(=O)N[C@@H](CCN)C(=O)N[C@H](C(=O)N[C@@H](CCN)C(=O)N[C@H]1CCNC(=O)[C@H]([C@@H](C)O)NC(=O)[C@H](CCN)NC(=O)[C@H](CCN)NC(=O)[C@H](CC(C)C)NC(=O)[C@@H](Cc2ccccc2)NC(=O)[C@H](CCN)NC1=O)[C@@H](C)O [DEACYL POLYMYXIN B] (Ac-[Dab]T[Dab][Dab][Dab][dF]L[Dab][Dab]T; lactam 4-C)
– | 15 µM | 16 µM (≈ 18.6 µg/mL) | 16 µM (≈ 18.6 µg/mL) | 8 µM (≈ 9.31 µg/mL) | CC(C)C[C@@H]1NC(=O)[C@@H](Cc2ccccc2)NC(=O)[C@H](CCN)NC(=O)[C@@H](NC(=O)[C@H](CCN)NC(=O)[C@@H](NC(=O)[C@H](CCCNC(=N)N)NC(=O)O)[C@@H](C)O)CCNC(=O)[C@H]([C@@H](C)O)NC(=O)[C@H](CCN)NC(=O)[C@H](CCN)NC1=O [DESFA-[ARG1]POLYMYXIN B]
– | 19 µM | 4 µM (≈ 4.64 µg/mL) | 2 µM (≈ 2.32 µg/mL) | 4 µM (≈ 4.64 µg/mL) | CCCCCCCC(=O)N[C@@H](CCN)C(=O)N[C@H](C(=O)N[C@@H](CCN)C(=O)N[C@H]1CCNC(=O)[C@H]([C@@H](C)O)NC(=O)[C@H](C)NC(=O)[C@H](CCN)NC(=O)[C@H](CC(C)C)NC(=O)[C@@H](Cc2ccccc2)NC(=O)[C@H](CCN)NC1=O)[C@@H](C)O (Octanoyl-[Dab]T[Dab][Dab][Dab][dF]L[Dab]AT; lactam 4-C)
– | 26 µM | 4 µM (≈ 4.93 µg/mL) | 2 µM (≈ 2.46 µg/mL) | 2 µM (≈ 2.46 µg/mL) | CCCCCCCC(=O)N[C@@H](CCN)C(=O)N[C@H](C(=O)N[C@@H](CCN)C(=O)N[C@H]1CCNC(=O)[C@H]([C@@H](C)O)NC(=O)[C@H](CCN)NC(=O)[C@H](CCNC(C)=O)NC(=O)[C@H](CC(C)C)NC(=O)[C@@H](Cc2ccccc2)NC(=O)[C@H](CCN)NC1=O)[C@@H](C)O
– | 6 µM | 1 µM (≈ 1.2 µg/mL) | 1 µM (≈ 1.2 µg/mL) | 1 µM (≈ 1.2 µg/mL) | CCCCCCCCC(=O)N[C@@H](CCN)C(=O)N[C@H](C(=O)N[C@@H](CCN)C(=O)N[C@H]1CCNC(=O)[C@H]([C@@H](C)O)NC(=O)[C@H](CCN)NC(=O)[C@H](CCN)NC(=O)[C@H](CC(C)C)NC(=O)[C@@H](Cc2ccccc2)NC(=O)[C@H](CCN)NC1=O)[C@@H](C)O [POLYMYXIN B5] (Nonanoyl-[Dab]T[Dab][Dab][Dab][dF]L[Dab][Dab]T; lactam 4-C)
– | 22 µM | 32 µM (≈ 36.3 µg/mL) | 32 µM (≈ 36.3 µg/mL) | 16 µM (≈ 18.2 µg/mL) | CC(C)C[C@@H]1NC(=O)[C@@H](Cc2ccccc2)NC(=O)[C@H](CCN)NC(=O)[C@@H](NC(=O)[C@H](CCN)NC(=O)[C@@H](NC(=O)[C@H](CCCCN)NC(=O)O)[C@@H](C)O)CCNC(=O)[C@H]([C@@H](C)O)NC(=O)[C@H](CCN)NC(=O)[C@H](CCN)NC1=O [DESFA-[LYS1]POLYMYXIN B]
– | 11 µM | 2 µM (≈ 2.27 µg/mL) | 2 µM (≈ 2.27 µg/mL) | 1 µM (≈ 1.13 µg/mL) | CCCCCCCC(=O)N[C@@H](CCN)C(=O)N[C@H](C(=O)N[C@@H](CCN)C(=O)N[C@H]1CCNC(=O)[C@H]([C@@H](C)O)NC(=O)[C@H](CCN)NC(=O)[C@H](CCN)NC(=O)CNC(=O)[C@@H](Cc2ccccc2)NC(=O)[C@H](CCN)NC1=O)[C@@H](C)O
– | 6 µM | 1 µM (≈ 1.11 µg/mL) | 1 µM (≈ 1.11 µg/mL) | 1 µM (≈ 1.11 µg/mL) | CCCCCCCC(=O)N[C@@H](CCN)C(=O)N[C@H](C(=O)N[C@@H](CCN)C(=O)N[C@H]1CCNC(=O)[C@H]([C@@H](C)O)NC(=O)[C@H](CCN)NC(=O)[C@H](CCN)NC(=O)[C@H](CC(C)C)NC(=O)[C@@H](C)NC(=O)[C@H](CCN)NC1=O)[C@@H](C)O
– | 8 µM | 32 µM (≈ 34.3 µg/mL) | 4 µM (≈ 4.29 µg/mL) | 2 µM (≈ 2.14 µg/mL) | CCCCCCCC(=O)N[C@@H](CCN)C(=O)N[C@H](C(=O)N[C@@H](CCN)C(=O)N[C@H]1CCNC(=O)[C@H]([C@@H](C)O)NC(=O)[C@H](CCN)NC(=O)[C@H](CCN)NC(=O)[C@H](C)NC(=O)[C@@H](C)NC(=O)[C@H](CCN)NC1=O)[C@@H](C)O
26 µg/mL (≈ 14.9 µM) | – | – | – | – | CCC(C)CCCCC(=O)N[C@@H](CC/N=C/c1ccc(O)c(OC)c1)C(=O)N[C@@H](C(=O)N[C@@H](CCN)C(=O)N[C@H]1CCNC(=O)[C@@H]([C@@H](C)O)NC(=O)[C@H](CC/N=C/c2ccc(O)c(OC)c2)NC(=O)[C@H](CC/N=C/c2ccc(O)c(OC)c2)NC(=O)[C@H](CC(C)C)NC(=O)[C@@H](Cc2ccccc2)NC(=O)[C@H](CC/N=C/c2ccc(O)c(OC)c2)NC1=O)[C@@H](C)O (some centres undefined)
– | 7 µM | 0.5 µM (≈ 0.61 µg/mL) | 0.5 µM (≈ 0.61 µg/mL) | 0.5 µM (≈ 0.61 µg/mL) | CCC(C)CCC(O)CC(=O)N[C@@H](CCN)C(=O)N[C@H](C(=O)N[C@@H](CCN)C(=O)N[C@H]1CCNC(=O)[C@H]([C@@H](C)O)NC(=O)[C@H](CCN)NC(=O)[C@H](CCN)NC(=O)[C@H](CC(C)C)NC(=O)[C@@H](Cc2ccccc2)NC(=O)[C@H](CCN)NC1=O)[C@@H](C)O (some centres undefined) [POLYMYXIN B6]
– | 6 µM | 2 µM (≈ 2.46 µg/mL) | 2 µM (≈ 2.46 µg/mL) | 2 µM (≈ 2.46 µg/mL) | CCCCCCCC(=O)N[C@@H](CCN)C(=O)N[C@H](C(=O)N[C@@H](CCN)C(=O)N[C@H]1CCNC(=O)[C@H]([C@@H](C)O)NC(=O)[C@H](CCN)NC(=O)[C@H](CCN)NC(=O)[C@H](CC(C)C)NC(=O)C(Cc2c[nH]c3ccccc23)NC(=O)[C@H](CCN)NC1=O)[C@@H](C)O (stereo in doubt)
– | >= 32 nmol/ml | ≥ 256 µM | 128 µM (≈ 97.5 µg/mL) | ≥ 256 µM and ≥ 300 µg/mL | CC(C)C[C@@H]1NC(=O)[C@@H](Cc2ccccc2)NC(=O)[C@H](CCN)NC(=O)[C@@H](N)CCNC(=O)[C@H]([C@@H](C)O)NC(=O)[C@H](CCN)NC(=O)[C@H](CCN)NC1=O [POLYMYXIN B HEPTAPEPTIDE]
– | 19 µM | 16 µM (≈ 17.7 µg/mL) | 4 µM (≈ 4.43 µg/mL) | 8 µM (≈ 8.86 µg/mL) | CC(C)C[C@@H]1NC(=O)[C@@H](Cc2ccccc2)NC(=O)[C@H](CCN)NC(=O)[C@@H](NC(=O)[C@H](CCN)NC(=O)[C@@H](NC(=O)[C@H](CCN)NC(=O)O)[C@@H](C)O)CCNC(=O)[C@H]([C@@H](C)O)NC(=O)[C@H](CCN)NC(=O)[C@H](CCN)NC1=O [DESFA-[DAB1]POLYMYXIN B]
